What is called IC50 is the concentration at which inhibition is half-maximal. A low value points to greater potency in that assay.

The structures appear in SMILES notation.

In experiment [1] the test system is panel of cultured cell lines (HuTu-80, HepG2, KB-3-1, A549, RAW264.7, hFF3). In words: MTT cytotoxicity, range over the panel of tested cell lines. Type of experiment: cell-based. The settings on record: 24 h, summary of Table 1 (for 2–10 partly from ref [21]). From the text: According to our previous data and data published by other research groups, chemical transformations of bile acids can greatly improve their antitumor potential. Thus, as the first step of evaluation of the biological activities of our novel DCA derivatives we assessed their effects on tumor cell viability. The cytotoxicity of the compounds was investigated with respect to a panel of cultured cell lines, including human duodenal HuTu-80, hepatocellular HepG2, cervical KB-3-1 and lung A549 carcinomas as well as murine macrophage RAW264.7 and non-transformed human fibroblasts hFF3 by MTT assay.
Cells were seeded in triplicate in 96-well plates at a density of 5 × 10^3 (HuTu-80, HepG2, KB-3-1, hFF3), 10^4 (A549) or 5 × 10^4 (RAW264.7) cells per well. Cells were incubated under standard conditions for 24 h and then they were treated with varying doses of investigated derivatives for subsequent 24 h. Then 10 µL of MTT solution (5 mg/mL) were added to each wells and cells were incubated for an additional 2 h under standard conditions. The crystals of formazan forming within live cells were solubilized with DMSO and the absorbance was measured in a Multiscan RC plate reader (Thermo LabSystems, Helsinki, Finland) at a test and reference wavelengths of 570 nm and 620 nm, respectively. […]

The test system of experiment [2] is HuTu-80 cells. In words: Annexin V FITC/PI apoptosis detection. Type of experiment: cell-based, human. The settings on record: 8 µM; for late apoptotic cells (Annexin V FITC+/PI+): control 1.5%; for early apoptotic cells (Annexin V FITC+/PI-): control 2.9%. As to the method: In the first step of the mechanistic study, the effect of compound 9 on phosphatidylserine (PS) externalization, a marker of the early phase of apoptosis, was analyzed by double staining of compound 9-treated HuTu-80 cells by annexin V FITC and propidium iodide (PI). Live cells are characterized by lipid membrane asymmetry—PS is mainly present in the inner leaflet of the plasma membrane, whereas phosphatidylcholine and sphingomielin are restricted to the outer leaflet. During apoptosis the activity of enzymes involved in membrane lipid scrambling […] and PS is exposed on cell surface. Annexin V is a protein that has a high affinity for PS and its conjugates with fluorophores can be used to estimate the level of PS externalization in vitro. Usage of PI gives in turn an opportunity to identify late apoptotic and necrotic cells displaying increased membrane permeability.
HuTu-80 cells were seeded in 6-well plates at a density of 5 × 10^5 cells per well and incubated for 24 h under standard conditions. Then the medium was replaced with fresh medium containing compound 9 at 8 µM. In order to determine induction of apoptosis, cells were harvested at 6, 18 and 24 h post treatment. Cells were detached with trypsin, washed with cold PBS and then resuspended gently in binding buffer at concentration of 10^6 cells/mL. Thereafter, cells were stained with fluorescein isothiocyanate (FITC)-conjugated Annexin V and PI (Annexin V-FITC Apoptosis Detection Kit, Millipore, Bedford, MA, USA) for 15 min in the dark and subsequently analyzed using NovoCyte Flow Cytometer (ACEA Biosciences Inc., San Diego, CA, USA). For each sample, 10.000 events were acquired.

Experiment [3] has as its system caspase-3/7 in HuTu-80 cells. In words: Caspase-3/-7 activity (Caspase-Glo 3/7). Type of experiment: cell-based, human. The settings on record: 8 µM, 18 h and 24 h time points. As to the method: In the next step of the study our attention was focused on understanding the ability of compound 9 to activate caspases—a family of cysteine proteases, being critical mediators of apoptosis. In order to perform this, we evaluated the effect of compound 9 on activity of key executioner caspases-3 and -7 responsible for proteolytic cleavage of many proteins in the culminating step of cell death.
The caspase-3/-7 activity in HuTu-80 cells was assessed by using Caspase-Glo® 3/7 Assay kit (Promega, Madison, WI, USA) according to the manufacturer’s instructions. Briefly, the cells were seeded in white-walled 96-well plates at a density of 10^4 cells/well for 24. After incubation, cells were treated with compound 9 at 8 µM for 6, 18 or 24 h and then 100 µL of Caspase-Glo® 3/7 reagent was added to each well. The plate was carefully shaken for 30 sec on a plate mixer and afterwards incubated for 30 min at room temperature in the dark. The luminescence was detected using CLARIOstar plate reader (BMG Labtech, Ortenberg, Germany).

Experiment [4] has as its system HuTu-80 cells. In words: Autophagy detection (MDC staining). The settings on record: 8 µM, 24 h, versus control. Type of experiment: cell-based, human. From the text: It is known that bile acids can induce cell death independently of apoptosis by activation of autophagy. Autophagy is a regulated lysosome-dependent pathway involved in the degradation of damaged and obsolete intracellular components. During autophagy, these components are isolated by a bilayer membrane resulting in autophagosome formation. Autophagosomes than fuse with lysosomes that leads to enzymatic degradation of their contents. During prolonged and strong stress, cells can autophagocytize up to a half of their cytoplasm that leads to a collapse of cell functions and, as a result, cell death. Monodansylcadaverin (MDC) is an autofluorescent amine that specifically accumulates within autophagic vacuoles and, therefore, can be used as a marker of autophagy.
HuTu-80 cells were seeded in 6-well plates at a density of 5 × 10^5 cells per well and incubated for 24 h under standard conditions. Then the cells were treated by compound 9 at 8 µM for 24 h, collected by trypsinization, washed with PBS, suspended with 50 µM of MDC at 37 °C for 15 min and analyzed using NovoCyte Flow Cytometer (ACEA Biosciences Inc.). In order to evaluate the type of autophagy (cytoprotective or cytodestructive), HuTu-80 cells were seeded in 96-well plate at a density of 5 × 10^3 cells/well for 24 h followed by co-treatment with compound 9 at 8 µM and chloroquine, an autophagy inhibitor, at 50 µM for 24 h. […]

For the compound `COC(=O)CC[C@@H](C)[C@H]1CC[C@H]2[C@@H]3CC[C@@H]4CC(O)(CNCCCO)CC[C@]4(C)[C@H]3CC(=O)[C@]12C` (stereo partly drawn) [Compound 9, Methyl 3-hydroxy-3-((3-hydroxypropylamino)methyl)-12-oxo-5β-cholan-24-oate], the IC50 in experiment [1] was in the range of 4 to 33.3 µM. In addition, the “late apoptotic cells (Annexin V FITC+/PI+)” value in experiment [2] (18 h) is listed as 4.9%; in experiment [2] (24 h), 10.6%. Also, the “early apoptotic cells (Annexin V FITC+/PI-)” value in experiment [2] (18 h) stood at 23.5%; in experiment [2] (24 h), 36.1%. Further, the “necrotic cells (Annexin V FITC-/PI+)” value in experiment [2] (all time points (6, 18, 24 h)) is reported as not above 1.1%. The caspase-3/7 activity result in experiment [3] was “significantly increased”. The “intensity of MDC-associated fluorescence” value in experiment [4] is given as “significantly higher than in control”.

Values taken from publication PMC6681416, “Novel Derivatives of Deoxycholic Acid Bearing Linear Aliphatic Diamine and Aminoalcohol Moieties and their Cyclic Analogs at the C3 Position: Synthesis and Evaluation of Their In Vitro Antitumor Potential” (Molecules, 2019).
